Species on record: Rattus norvegicus
Assay: Open TG-GATES - Regimen: Single
Type: toxicity, organism-based, Sprague-Dawley
Design: regimen Single, gender Male, age 6 weeks
Details: in vivo, po, 50 mg/kg, route gavage, dose level Low; for APTT / Bas / Eos / Fbg / Hb / Ht / Lym / MCH / MCHC / MCV / Mono / Neu / PT / Plat / RBC / Ret / WBC: tissue Blood; for KIDNEY_L / KIDNEY_R / KIDNEY_TOTAL: tissue Kidney; for LIVER: tissue Liver; for A/G / ALP / ALT / AST / BUN / CRE / Ca / Cl / DBIL / GLC / IP / K / LDH / Na / PL / RALB / TBIL / TC / TG / TP / gamma-GTP: tissue Plasma

`CN1C(=O)OC(C)(C)C1=O` [TRIMETHADIONE] gave a TERMINAL_BW (3 h) of 208.1 g, an APTT (3 h) of 16.8 s and a Bas (3 h) of 0%. For the same compound, the Eos (3 h) was 0.8%, the Fbg (3 h) was 278 mg/dL and the Hb (3 h) was 13.4 g/dL. It also gave a Ht (3 h) of 40.2%, a Lym (3 h) of 78.4% and an MCH (3 h) of 21.3 pg. For the same compound, the MCHC (3 h) was 33.3%, the MCV (3 h) was 64 fL and the Mono (3 h) was 3%. For the same compound, the Neu (3 h) was 17.4%, the PT (3 h) was 13.8 s and the Plat (3 h) was 129 x10_4/uL. The RBC (3 h) was 628.4 x10_4/ul, the Ret (3 h) was 8.1% and the WBC (3 h) was 86.2 x10_2/uL. The KIDNEY_L (3 h) was 0.9 g, the KIDNEY_R (3 h) was 0.9 g and the KIDNEY_TOTAL (3 h) was 1.8 g. For the same compound, the LIVER (3 h) was 9.6 g, the A/G (3 h) was 0.9 and the ALP (3 h) was 1564.2 IU/L. It also gave an ALT (3 h) of 42.6 IU/L, an AST (3 h) of 80.4 IU/L and a BUN (3 h) of 10.4 mg/dL. It also gave a CRE (3 h) of 0.2 mg/dL, a Ca (3 h) of 10.6 mg/dL and a Cl (3 h) of 108.2 meq/L. For the same compound, the DBIL (3 h) was 0.006 mg/dL, the GLC (3 h) was 180.8 mg/dL and the IP (3 h) was 8.7 mg/dL. It also gave a K (3 h) of 4.1 meq/L, an LDH (3 h) of 133.8 IU/L and a Na (3 h) of 141.4 meq/L. For the same compound, the PL (3 h) was 146.8 mg/dL, the RALB (3 h) was 2.5 g/dL and the TBIL (3 h) was 0.064 mg/dL. The TC (3 h) was 76.4 mg/dL, the TG (3 h) was 77.8 mg/dL and the TP (3 h) was 5.4 g/dL. The gamma-GTP (3 h) was 1.6 IU/L, the TERMINAL_BW (6 h) was 207.4 g and the APTT (6 h) was 17 s. The Bas (6 h) was 0%, the Eos (6 h) was 1% and the Fbg (6 h) was 268.2 mg/dL. For the same compound, the Hb (6 h) was 13.5 g/dL, the Ht (6 h) was 40.5% and the Lym (6 h) was 78.6%. The MCH (6 h) was 21.6 pg, the MCHC (6 h) was 33.2% and the MCV (6 h) was 64.9 fL. It also gave a Mono (6 h) of 2.4%, a Neu (6 h) of 17.2% and a PT (6 h) of 13.7 s. For the same compound, the Plat (6 h) was 120 x10_4/uL, the RBC (6 h) was 625.4 x10_4/ul and the Ret (6 h) was 8%. For the same compound, the WBC (6 h) was 71.3 x10_2/uL, the KIDNEY_L (6 h) was 0.9 g and the KIDNEY_R (6 h) was 0.9 g. The KIDNEY_TOTAL (6 h) was 1.9 g, the LIVER (6 h) was 8.6 g and the A/G (6 h) was 0.9. For the same compound, the ALP (6 h) was 1854.2 IU/L, the ALT (6 h) was 39.8 IU/L and the AST (6 h) was 79.8 IU/L. The BUN (6 h) was 10.8 mg/dL, the CRE (6 h) was 0.2 mg/dL and the Ca (6 h) was 10.7 mg/dL. For the same compound, the Cl (6 h) was 108 meq/L, the DBIL (6 h) was 0.004 mg/dL and the GLC (6 h) was 185.6 mg/dL. For the same compound, the IP (6 h) was 8.9 mg/dL, the K (6 h) was 4.2 meq/L and the LDH (6 h) was 130.4 IU/L. The Na (6 h) was 140.8 meq/L, the PL (6 h) was 139.4 mg/dL and the RALB (6 h) was 2.5 g/dL. For the same compound, the TBIL (6 h) was 0.06 mg/dL, the TC (6 h) was 77.2 mg/dL and the TG (6 h) was 54.4 mg/dL. It also gave a TP (6 h) of 5.3 g/dL, a gamma-GTP (6 h) of 1.2 IU/L and a TERMINAL_BW (9 h) of 201.4 g. It also gave an APTT (9 h) of 18.8 s, a Bas (9 h) of 0% and an Eos (9 h) of 1%. The Fbg (9 h) was 285.2 mg/dL, the Hb (9 h) was 13.2 g/dL and the Ht (9 h) was 39.8%. For the same compound, the Lym (9 h) was 78.8%, the MCH (9 h) was 21.5 pg and the MCHC (9 h) was 33.2%. For the same compound, the MCV (9 h) was 64.6 fL, the Mono (9 h) was 2% and the Neu (9 h) was 17.6%. The PT (9 h) was 13.6 s, the Plat (9 h) was 142.2 x10_4/uL and the RBC (9 h) was 615.4 x10_4/ul. It also gave a Ret (9 h) of 8.1%, a WBC (9 h) of 80.8 x10_2/uL and a KIDNEY_L (9 h) of 0.9 g. The KIDNEY_R (9 h) was 0.9 g, the KIDNEY_TOTAL (9 h) was 1.8 g and the LIVER (9 h) was 7.5 g. For the same compound, the A/G (9 h) was 0.9, the ALP (9 h) was 1414 IU/L and the ALT (9 h) was 34.8 IU/L. It also gave an AST (9 h) of 74.6 IU/L, a BUN (9 h) of 8.4 mg/dL and a CRE (9 h) of 0.2 mg/dL. The Ca (9 h) was 10.4 mg/dL, the Cl (9 h) was 108.6 meq/L and the DBIL (9 h) was 0.002 mg/dL. For the same compound, the GLC (9 h) was 158.8 mg/dL, the IP (9 h) was 9.7 mg/dL and the K (9 h) was 3.9 meq/L. For the same compound, the LDH (9 h) was 99.8 IU/L, the Na (9 h) was 141.2 meq/L and the PL (9 h) was 143.2 mg/dL. The RALB (9 h) was 2.5 g/dL, the TBIL (9 h) was 0.064 mg/dL and the TC (9 h) was 84.6 mg/dL. It also gave a TG (9 h) of 33.2 mg/dL, a TP (9 h) of 5.3 g/dL and a gamma-GTP (9 h) of 1.2 IU/L. For the same compound, the TERMINAL_BW (24 h) was 222.7 g, the APTT (24 h) was 19.1 s and the Bas (24 h) was 0%. The Eos (24 h) was 1%, the Fbg (24 h) was 267 mg/dL and the Hb (24 h) was 13.4 g/dL. The Ht (24 h) was 40.3%, the Lym (24 h) was 76.4% and the MCH (24 h) was 21.6 pg. The MCHC (24 h) was 33.2%, the MCV (24 h) was 64.9 fL and the Mono (24 h) was 2.8%. It also gave a Neu (24 h) of 19.4%, a PT (24 h) of 13.4 s and a Plat (24 h) of 118.6 x10_4/uL. For the same compound, the RBC (24 h) was 620 x10_4/ul, the Ret (24 h) was 7.3% and the WBC (24 h) was 100.7 x10_2/uL. For the same compound, the KIDNEY_L (24 h) was 1 g, the KIDNEY_R (24 h) was 1 g and the KIDNEY_TOTAL (24 h) was 1.9 g. It also gave an LIVER (24 h) of 10 g, an A/G (24 h) of 0.8 and an ALP (24 h) of 2138 IU/L. It also gave an ALT (24 h) of 47.4 IU/L, an AST (24 h) of 77.8 IU/L and a BUN (24 h) of 14.6 mg/dL. It also gave a CRE (24 h) of 0.2 mg/dL, a Ca (24 h) of 10.8 mg/dL and a Cl (24 h) of 105 meq/L. The DBIL (24 h) was 0.008 mg/dL, the GLC (24 h) was 173.2 mg/dL and the IP (24 h) was 7.4 mg/dL. It also gave a K (24 h) of 4 meq/L, an LDH (24 h) of 112.2 IU/L and a Na (24 h) of 142.6 meq/L. The PL (24 h) was 151.4 mg/dL, the RALB (24 h) was 2.6 g/dL and the TBIL (24 h) was 0.05 mg/dL. It also gave a TC (24 h) of 77.6 mg/dL, a TG (24 h) of 99.4 mg/dL and a TP (24 h) of 5.7 g/dL. For the same compound, the gamma-GTP (24 h) was 1.2 IU/L.

— ChEMBL document CHEMBL3885861, “Open TG-GATES”
